Key:
VTC-037 GSCs = experiment: Gliosphere formation assay, VTC-037 GSCs; format: cell-based, human; settings: VTC-037, 10, 50 or 100 μM every other day, 2 weeks
Procedure: GSCs and PDX GBM22 cells were plated as single cell suspension in low-attachment 96-well plates (GSCs: 100–500 cells per well; GBM22 cells: 500–2000 cells per well), using methods similar to those reported previously. Cells were then treated with peptides every other day. 2 weeks later, gliospheres were observed using phase contrast microscopy on a Revolve microscope (Echo Laboratories). The number of gliospheres was then determined, while the gliosphere size was assessed by diameter measurement. To evaluate stem cell frequency in GSCs, gliosphere formation assay was performed with limiting cell dilutions with cells plated at varying densities in low-attachment 96-well plates. Cells were treated with peptides every other day, and after 2 weeks, gliosphere-positive wells were observed and scored using phase contrast microscopy on a Revolve microscope. The stem cell frequency was analyzed using the online data analysis program ELDA (Extreme Limiting Dilution Analysis).

Cx43 = Cx43 expression in co-IP input, immunoblot, VTC-037 GSCs; format: cell-based, human; settings: 50 μM, 24 h
Procedure: Cells were lysed in RIPA buffer (0.1% sodium dodecyl sulphate, 50 mM Tris pH 7.4, 150 mM NaCl, 1 mM EDTA, 1% Triton X-100, 1% deoxycholic acid, 200 μM Na3VO4, and 1 mM NaF) supplemented with Halt^TM Protease and Phosphatase Inhibitor Cocktail (Thermo Fisher). Lysates were sonicated prior to centrifugation at 4 °C for 20 min at 10,000 x g. Protein concentration was quantified using the DC protein assay (Bio-Rad Laboratories) and a standard curve obtained with increasing concentrations of Bovine Serum Albumin (BSA; Fisher Scientific). Protein samples were normalized to 20 μg total protein per lane and resolved by SDS-PAGE electrophoresis. 4X Bolt LDS sample buffer supplemented with 400 mM DTT (final concentration 1X Bolt LDS with 100 mM DTT) was added to samples before heating at 70 °C for 10 min. […] Membranes were imaged on a ChemiDoc™ imaging system, and analyzed with Image Lab software (Bio-Rad Laboratories). […]
Prior to lysis, cross-linking was completed by incubating cells in DTBP (dimethyl 3,3’-dithiobispropionimidate; 2 mM in PBS) for 30 min at 37 °C followed by a glycine quench (100 mM glycine in PBS) for 15 min at room temperature. […] Protein concentration was quantified using the DC protein assay and a standard curve obtained with increasing concentrations of BSA, and 500 μg of total protein was used per reaction for co-IP. […]

With VFFKGVKDRVKGRSD [JM2] as the sequence, how does the GSC-dependent gliosphere formation (VTC-037 GSCs) read?
The GSC-dependent gliosphere formation was “inhibits VTC-001, VTC-034, and VTC-037 GSC-dependent gliosphere formation in a dose-dependent manner”.

And the “Gliosphere size (diameter)” value (VTC-037 GSCs; n = 4)?
Its value is “significant decrease in gliosphere size”.

And the Gliosphere number (VTC-037 GSCs; n = 6)?
Its Gliosphere number is “significant decrease in gliosphere size as assessed by diameter measurement (Fig. 6B), and number”.

What about the “Cx43 expression (co-IP input)” value (Cx43) of the same sequence?
The value was “does not affect Cx43 expression in GSCs”.

— PMC12084297, “Cytoplasmic connexin43-microtubule interactions promote glioblastoma stem-like cell maintenance and tumorigenicity” (Cell Death & Disease, 2025)
